SMILES strings stand for the structures. pIC50: −log10 of the molar value.

Here are results for 13 compounds from ChEMBL document CHEMBL5523740, “Discovery of Potent and Selective c-Met Degraders for Hepatocellular Carcinoma Treatment” (J Med Chem, 2024).

In series [1] the test system is MHCC97H. Put plainly: Antiproliferative activity against human MHCC97H cells incubated for 24 hrs by CCK8 assay. It is filed as functional, cell-based.
A short description of series [2]: Toxicity in BALB/c mouse xenografted with human MHCC97H cells assessed as reduction in body weight at 20 mg/kg, po qd for 22 days and measured every 2 days. It is filed as organism-based. The following applies: in vivo, 528 h, time 22 day.
In series [3] the test system is MHCC97H. Put plainly: Induction of cell cycle arrest in human MHCC97H cells assessed as accumulation of cells at G1 phase at 3 nM incubated for 24 hrs by PI staining based flow cytometry analysis (reference value: 70.4%). It is filed as functional.
In series [4] the test system is MHCC97H. Briefly: Induction of cell cycle arrest in human MHCC97H cells assessed as accumulation of cells at G2 phase at 3 nM incubated for 24 hrs by PI staining based flow cytometry analysis (reference value: 19.1%). Type of series: functional.
A short description of series [5]: Toxicity in BALB/c mouse xenografted with human MHCC97H cells assessed as kidney lesions at 20 mg/kg, po qd for 22 days and measured every 2 days by H and E staining based assay. It is filed as organism-based. The following applies: in vivo, 528 h, time 22 day.
The subject of series [6] is MHCC97H. Briefly: Induction of apoptosis in human MHCC97H cells assessed as viable cells at 3 nM incubated for 24 hrs by Annexin-V-FITC/PI staining based flow cytometry analysis (reference value: 86.3%). Type of series: functional. The following applies: read-out: Activity.
A short description of series [7]: Toxicity in BALB/c mouse xenografted with human MHCC97H cells assessed as liver lesions at 20 mg/kg, po qd for 22 days and measured every 2 days by H and E staining based assay. The following applies: in vivo, 528 h, time 22 day. It is filed as organism-based.
Series [8] in a line: Toxicity in BALB/c mouse xenografted with human MHCC97H cells assessed as spleen lesions at 20 mg/kg, po qd for 22 days and measured every 2 days by H and E staining based assay. It is filed as organism-based. The following applies: in vivo, 528 h, time 22 day.
For series [9], the system named is MHCC97H. Briefly: Antitumor activity against human MHCC97H cells xenografted in BALB/c mouse assessed as tumor growth inhibition at 20 mg/kg, po qd for 22 days and measured every 2 days. It is filed as functional. To be noted: 528 h, time 22 day, read-out: TGI.
A short description of series [10]: Toxicity in BALB/c mouse xenografted with human MHCC97H cells assessed as lung lesions at 20 mg/kg, po qd for 22 days and measured every 2 days by H and E staining based assay. It is filed as organism-based. To be noted: in vivo, 528 h, time 22 day.
Series [11] relates to MHCC97H. Briefly: Induction of apoptosis in human MHCC97H cells assessed as necrotic cells at 3 nM incubated for 24 hrs by Annexin-V-FITC/PI staining based flow cytometry analysis (reference value: 1.77%). It is filed as functional.
Series [12] can be described thus: Toxicity in BALB/c mouse xenografted with human MHCC97H cells assessed as heart lesions at 20 mg/kg, po qd for 22 days and measured every 2 days by H and E staining based assay. It is filed as organism-based. To be noted: in vivo, 528 h, time 22 day.
The test system of series [13] is MHCC97H. Put plainly: Induction of apoptosis in human MHCC97H cells assessed as early apoptotic cells at 3 nM incubated for 24 hrs by Annexin-V-FITC/PI staining based flow cytometry analysis (reference value: 7.70%). It is filed as functional.
Series [14] has as its system MHCC97H. Briefly: Induction of apoptosis in human MHCC97H cells assessed as late apoptotic cells at 3 nM incubated for 24 hrs by Annexin-V-FITC/PI staining based flow cytometry analysis (reference value: 4.24%). It is filed as functional.
Series [15] has as its system BaF3. Briefly: Antiproliferative activity against mouse BaF3 cells harboring TPR-MET D1228N mutant fusion protein incubated for 72 hrs by CellTiter-Glo reagent based assay. To be noted: BaF3, 72 h. Type of series: functional, cell-based.
The test system of series [16] is BaF3. Put plainly: Antiproliferative activity against mouse BaF3 cells harboring TPR-MET Y1230H mutant fusion protein incubated for 72 hrs by CellTiter-Glo reagent based assay. It is filed as functional, cell-based. The following applies: BaF3, 72 h.
Series [17] relates to BaF3. Put plainly: Antiproliferative activity against mouse BaF3 cells harboring TPR-MET fusion protein incubated for 72 hrs by CellTiter-Glo reagent based assay. It is filed as functional, cell-based. To be noted: BaF3, 72 h.
In series [18] the target is Hepatocyte growth factor receptor (Homo sapiens, UniProt P08581). Put plainly: Induction of c-Met degradation in human MHCC97H cells at 1 uM incubated for 24 hrs by Western blotting analysis. Type of series: cell-based.
Sequence of Hepatocyte growth factor receptor (P08581 whole entry): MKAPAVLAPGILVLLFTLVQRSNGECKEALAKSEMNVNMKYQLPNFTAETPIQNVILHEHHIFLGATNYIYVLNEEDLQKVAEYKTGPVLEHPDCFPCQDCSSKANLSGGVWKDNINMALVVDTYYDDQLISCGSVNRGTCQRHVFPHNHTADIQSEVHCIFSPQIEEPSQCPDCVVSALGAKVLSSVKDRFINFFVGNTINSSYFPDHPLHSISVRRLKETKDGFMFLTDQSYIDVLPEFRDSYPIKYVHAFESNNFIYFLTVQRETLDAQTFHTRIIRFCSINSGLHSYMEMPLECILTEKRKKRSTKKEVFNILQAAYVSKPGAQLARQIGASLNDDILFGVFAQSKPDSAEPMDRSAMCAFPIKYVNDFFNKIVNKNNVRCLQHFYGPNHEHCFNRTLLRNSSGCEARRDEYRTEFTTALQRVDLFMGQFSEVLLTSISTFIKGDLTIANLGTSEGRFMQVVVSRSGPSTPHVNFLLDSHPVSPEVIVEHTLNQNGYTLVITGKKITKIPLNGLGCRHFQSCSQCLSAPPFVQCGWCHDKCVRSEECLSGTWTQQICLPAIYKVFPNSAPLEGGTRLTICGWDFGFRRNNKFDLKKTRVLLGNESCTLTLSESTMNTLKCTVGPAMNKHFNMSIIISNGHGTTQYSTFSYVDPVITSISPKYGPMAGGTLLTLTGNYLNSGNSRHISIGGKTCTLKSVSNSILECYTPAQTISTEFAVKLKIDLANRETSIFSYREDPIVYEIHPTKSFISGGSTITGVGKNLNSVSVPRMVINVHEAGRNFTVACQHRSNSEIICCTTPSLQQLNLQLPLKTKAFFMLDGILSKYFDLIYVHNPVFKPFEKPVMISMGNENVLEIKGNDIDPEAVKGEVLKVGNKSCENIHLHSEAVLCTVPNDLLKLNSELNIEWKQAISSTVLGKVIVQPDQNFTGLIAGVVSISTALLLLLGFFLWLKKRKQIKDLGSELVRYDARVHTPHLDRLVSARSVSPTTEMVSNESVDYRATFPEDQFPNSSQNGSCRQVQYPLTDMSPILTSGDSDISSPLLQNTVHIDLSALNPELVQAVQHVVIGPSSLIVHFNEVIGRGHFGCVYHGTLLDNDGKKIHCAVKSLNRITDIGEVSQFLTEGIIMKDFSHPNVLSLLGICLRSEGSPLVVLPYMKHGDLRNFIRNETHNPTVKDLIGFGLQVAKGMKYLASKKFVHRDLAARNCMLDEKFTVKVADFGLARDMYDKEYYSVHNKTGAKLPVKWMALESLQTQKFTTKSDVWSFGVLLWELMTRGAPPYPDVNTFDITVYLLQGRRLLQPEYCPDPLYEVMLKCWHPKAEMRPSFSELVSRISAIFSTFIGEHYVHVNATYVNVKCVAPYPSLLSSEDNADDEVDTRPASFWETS

Regarding `CN1CCC(COc2cnc(-c3cccc(Cn4nc(-c5cccc(C#N)c5)ccc4=O)c3)nc2)CC1` [TEPOTINIB], the pIC50 was 8.44 in the series with MHCC97H [1], 5.69 in the series on BaF3 [15], 5.74 in the series with BaF3 [16] and 8.28 with BaF3 [17]. Moreover, the Activity entry is given as “Non-Toxic” in series [2]; 73.7% in the series on MHCC97H [3]; 16.6% in the series with MHCC97H [4]; “Non-Toxic” in series [5]; “Non-Toxic” in series [7]; “Non-Toxic” in series [8]. The Activity result in series [10] is given as “Non-Toxic”; in the series with MHCC97H [11] it was 2.57%; in [12], “Non-Toxic”; with MHCC97H [13], 13.9%; in the series on MHCC97H [14], 3.84%. The viability at 0.003 µM in the series with MHCC97H [6] is 79.6%. Moreover, the inhibition in vivo at 20 mg/kg in the series with MHCC97H [9] worked out at 58.8%.
`N#Cc1cccc(-c2ccc(=O)n(Cc3cccc(-c4ncc(OCC5CCN(C(=O)CC6c7ccccc7-c7ccccc76)CC5)cn4)c3)n2)c1` had a pIC50 in the series with MHCC97H [1] of 6.03. In [18], this compound returned an Activity of 15.8%.
The like results for `N#Cc1cccc(-c2ccc(=O)n(Cc3cccc(-c4ncc(OCC5CCN(CC(=O)NCCCCCCCCCCNC(=O)CC67CC8CC(CC(C8)C6)C7)CC5)cn4)c3)n2)c1` were, in that order, 6.81 and less than 10%.
The like results for `N#Cc1cccc(-c2ccc(=O)n(Cc3cccc(-c4ncc(OCC5CCN(C(=O)CC(c6ccccc6)c6ccccc6)CC5)cn4)c3)n2)c1` were, in that order, 6.89 and less than 10%.
The like results for `N#Cc1cccc(-c2ccc(=O)n(Cc3cccc(-c4ncc(OCC5CCN(CCCC(=O)NCC67CC8CC(CC(C8)C6)C7)CC5)cn4)c3)n2)c1` were, in that order, 7.93 and 40.5%.
The compound `N#Cc1cccc(-c2ccc(=O)n(Cc3cccc(-c4ncc(OCC5CCN(CC(=O)NCCCCCCCCNC(=O)CC67CC8CC(CC(C8)C6)C7)CC5)cn4)c3)n2)c1` had a pIC50 with MHCC97H [1] of 6.81. Also, the Activity in series [18] is less than 10%.
The like results for `N#Cc1cccc(-c2ccc(=O)n(Cc3cccc(-c4ncc(OCC5CCN(CC(=O)NCCCCNC(=O)CC67CC8CC(CC(C8)C6)C7)CC5)cn4)c3)n2)c1` were, in that order, 6.86 and less than 10%.
The like results for `N#Cc1cccc(-c2ccc(=O)n(Cc3cccc(-c4ncc(OCC5CCN(CC(=O)NCCNC(=O)CC67CC8CC(CC(C8)C6)C7)CC5)cn4)c3)n2)c1` were, in that order, 7.40 and 22.4%.
The like results for `N#Cc1cccc(-c2ccc(=O)n(Cc3cccc(-c4ncc(OCC5CCN(C(=O)CC67CC8CC(CC(C8)C6)C7)CC5)cn4)c3)n2)c1` were, in that order, 7.17 and 67.4%.
In turn, `N#Cc1cccc(-c2ccc(=O)n(Cc3cccc(-c4ncc(OCC5CCN(CC(=O)NCC6CC7C=CC6C7)CC5)cn4)c3)n2)c1` (stereo unspecified) showed a pIC50 in the series on MHCC97H [1] of 7.13. This compound showed an Activity in [18] of 50.2%.
The like results for `N#Cc1cccc(-c2ccc(=O)n(Cc3cccc(-c4ncc(OCC5CCN(CC(=O)NCCCCCCNC(=O)CC67CC8CC(CC(C8)C6)C7)CC5)cn4)c3)n2)c1` were, in that order, 6.70 and less than 10%.
The like results for `CC(C)[C@@H]1CC[C@@H](C)C[C@H]1OCC(=O)N1CCC(COc2cnc(-c3cccc(Cn4nc(-c5cccc(C#N)c5)ccc4=O)c3)nc2)CC1` were, in that order, 6.59 and 35.8%.
`N#Cc1cccc(-c2ccc(=O)n(Cc3cccc(-c4ncc(OCC5CCN(CCNC(=O)CC67CC8CC(CC(C8)C6)C7)CC5)cn4)c3)n2)c1`: in the series on MHCC97H [1], the pIC50 is 7.64. Besides, the Activity in series [18] stood at 11.1%.
